The values below come from patent publication US11110105B2, “Compounds, composition and uses thereof for treating cancer” (INSTITUT GUSTAVE ROUSSY, priority 2017, dated 2021).

Broadly, the viability is the share of living cells, or the viability signal relative to a control.

In data set [1] the test system is mouse melanoma cell line B16F10. Nature of the data set: B3Z SL8-specific T-cell activation assay, B16F10. The data set is classed as cell-based. To be noted: B16F10, Globin-intron-SL8; 15 μM or 35 μM. Here is the method: B3Z SL8-specific T-cell activation after co-culture with (A) human melanoma A375, human lung carcinoma A549 or normal human lung fibroblast MRC5 cell lines, all transiently expressing the intron-derived SL8 peptide and the H2-K^b molecules and treated upstream with 2,5 μM or 6,25 μM isoginkgetin for 18 hours; or with (B) mouse sarcoma MCA205 or mouse melanoma B16F10 cell lines both transiently expressing the intron-derived SL8 peptide and treated upstream with 6,25 μM, 15 μM or 25 μM isoginkgetin for 18 hours. […]
Data are given as mean ±SEM. *P<0.05, **P<0.01, ***P<0.001 (unpaired student t test). […] Tumor size was assessed every 3 to 4 days until reaching the established ethical endpoints. […]
MCA205 and B16F10 mouse cell lines are transfected with the plasmid YFP-Globin-SL8-intron or with the PCDNA3 empty plasmid (negative control) with the transfection reagent jetPRIME (Ozyme) or GeneJuice (Millipore) respectively according to each manufacturer protocol. […] Finally, the β-galactosidase activity is measured using the FLUOstar OPTIMA (BMG LABTECH Gmbh, Offenburg, Germany). Results are expressed as mean ±SEM. *P<0.05, **P<0.01, ***P<0.001 (unpaired student t test).

Data set [2] concerns B16F10 WT tumors. In words: Tumor challenge, B16F10 WT in immunodeficient Nu/Nu nude mice. The data set is classed as in vivo, mouse. The settings on record: 18 mg/kg intraperitoneally, days 5, 10 and 15. As to the method:
(A) Experimental settings. Growth of (B) sarcoma MCA205 or (C) melanoma B16F10 cells that both stably express the globin-SL8-intron construct or (D) MCA205 Wild Type (WT) or (E) B16F10 WT cells that were subcutaneously inoculated on the flank of immunocompetent C57BL/6 mice injected intraperitoneally with 12 mg/kg or 18 mg/kg of isoginkgetin at days 5, 10 and 15 after inoculation. Tumor size was assessed every 3 to 4 days until reaching the established ethical endpoints. Each line represents the tumor size in area (mm^2) of 6 mice in each group. Size in area (mm^2) of (F) MCA205 globin-SL8-intron, (G) B16F10 globin-SL8-intron, (H) MCA205 WT or (I) B16F10 WT tumors subcutaneously inoculated on the flank of immunodeficient Nu/Nu Nude mice injected intraperitoneally with 18 mg/kg of isoginkgetin at days 5, 10 and 15 after inoculation. Data are presented at the day before the endpoints are reached.
Each line represents the tumor size in area (mm^2) of at least 6 mice in each group. The C right panel represents the tumor size at day 27. […]
Inventors then assessed the requirement of the immune response for isoginkgetin to reduce tumor growth Immunodeficient Nu/Nu nude mice were inoculated subcutaneously with either MCA205 or B16F10 cells that stably express the Globin-intron-SL8 or WT, and were treated with the same settings as previously described (FIG. 9A). […]

Data set [3] can be described thus: MTT assay on MRC5 cell line. The data set is classed as cell-based. The settings on record: human, MRC5 fibroblast cells, read-out: % cell viability (±SEM). As to the method: MCA205 mouse sarcoma cell line is cultured at 37° C. under 5% CO2 in RPMI 1640 medium (Life Technologies) in the presence of 1% glutamine, 1% sodium pyruvate, 1% non-essential amino-acids, 1% penicillin/streptomycin and 10% FBS (Life Technologies) under standard conditions. B16F10 mouse melanoma cell line, MRC5 human fibroblast cell line and A375 human melanoma cell line are cultured at 37° C. under 5% CO2 in DMEM medium (Life Technologies) containing 1% glutamine, 1% penicillin/streptomycin and 10% FCS under standard conditions. A549 human lung carcinoma cell line is cultured at 37° C. under 5% CO2 in DMEM/F12+Glutamax I in the presence of 1% Hepes, 1% sodium pyruvate and 10% FBS under standard conditions. Stable MCA205-Globin-SL8-intron cell line are cultured under the same condition as MCA205 cell line with additional 2 mg/ml G418 (geneticin from Life Technologies) for selection. Stable B16F10-Globin-SL8-intron cell line are cultured under the same condition as B16F10 cell line with additional 2 mg/ml G418 (geneticin from Life Technologies) for selection. The SL8/Kb-specific (B3Z) T-cell reporter hybridoma are cultured at 37° C. under 5% CO2 in RPMI 1640 medium (Life Technologies) in the presence of 1% glutamine, 0.1% β-galactosidase, 1% penicillin/streptomycin and 10% FCS under standard conditions. […]

For `COc1ccc(-c2cc(=O)c3c(OC)cc(OP(=O)([O-])[O-])c(-c4cc(-c5cc(=O)c6c(OC)cc(OP(=O)([O-])[O-])cc6o5)ccc4OC)c3o2)cc1.[Na+].[Na+].[Na+].[Na+]` [IM2P2], the “intron-SL8-derived antigen presentation (B3Z activation)” value in data set [1] is “does not impact it”.

As to `COc1ccc(-c2cc(=O)c3c(O)cc(O)c(-c4cc(-c5cc(=O)c6c(O)cc(O)cc6o5)ccc4OC)c3o2)cc1` [Isoginkgetin, isoginkgetin], the tumor growth entry in data set [2] is recorded as “No effect”. In data set [3] (MRC5, 2.5 μM), the viability at 2.5 µM was found to be 100%. The viability at 6.25 µM in data set [3] (MRC5, 6.25 μM) was 100%.
